Measurements from article PMC4377985, “Cytotoxic and Antibacterial Angucycline- and Prodigiosin- Analogues from the Deep-Sea Derived Streptomyces sp. SCSIO 11594” (Marine Drugs, 2015).
In brackets after ≈: the same amount, converted by molar mass. Like-named read-outs stand apart in the source and are kept apart here.

Tests used:
[1] = in vitro cytotoxicity, MTT; format: cell-based; conditions: human, normal hepatic cell line HL7702, MTT, n = 3, mean ± SD
Method: (§1) The anticancer activity of the related natural products has been described in a number of literatures, and the structure activity relationships of related synthetic natural products have been reported.
(§2) IC50 values were calculated using GraphPad Prism 5 software. All data were obtained in triplicate and are presented as means ± SD.

[2] = tested on: human breast adenocarcinoma cell line MCF-7; assay: in vitro cytotoxicity, MTT; format: cell-based
Method: as §1, §2

[3] = tested on: human hepatocarcinoma cancer cell line HepG2; assay: in vitro cytotoxicity, MTT; format: cell-based
Method: as §1, §2

[4] = tested on: human lung cancer cell line A549; assay: in vitro cytotoxicity, MTT; format: cell-based
Method: as §1, §2

[5] = tested on: human nasopharyngeal carcinoma cell line CNE2; assay: in vitro cytotoxicity, MTT; format: cell-based
Method: as §1, §2

[6] = tested on: four human cancer cell lines A549, CNE2, HepG2, MCF-7; assay: in vitro cytotoxicity, MTT, panel of four cancer cell lines; format: cell-based; conditions: for estimated therapeutic ratio (TR): comparison of tumor cell-derived IC50 values with HL7702 IC50; for fold more cytotoxic/potent than the positive control cisplatin: relative to cisplatin, cancer cell lines
Method: Compounds 1–5 were tested for potential in vitro cytotoxicity against human lung cancer cell line A549, human nasopharyngeal carcinoma cell line CNE2, human breast adenocarcinoma cell line MCF-7, human hepatocarcinoma cancer cell line HepG2, and the normal hepatic cell line HL7702. […] The anticancer activity of the related natural products has been described in a number of literatures, and the structure activity relationships of related synthetic natural products have been reported.
Compounds 1–5 were evaluated for cytotoxic activity using four human cancer cell lines, A549, CNE2, HepG2, MCF-7, one normal hepatic cell line HL7702 and previously reported MTT methodologies. IC50 values were calculated using GraphPad Prism 5 software. All data were obtained in triplicate and are presented as means ± SD. Cisplatin was used as a positive control.

MRSE shhs-E1 = assay: antibacterial activity, dilution susceptibility test; format: cell-based, methicillin-resistant Staphylococcus epidermidis; conditions: Staphylococcus epidermidis
Method: (§3) The antibacterial activities of compounds 1–5 were evaluated using MRSE shhs-E1, methicillin-resistant Staphylococcus aureus (MRSA) shhs-A1, Staphylococcus aureus ATCC 29213, Enterococcus faecalis ATCC29212, Escherichia coli ATCC 25922, Micrococcus luteus, and multidrug resistant Pseudomonas aeruginosa.
(§4) The antibacterial activities of compounds 1–5 were assessed using seven strains of pathogenic bacteria including MRSE shhs-E1, MRSA shhs-A1, Staphylococcus aureus ATCC 29213, Enterococcus faecalis ATCC29212, Escherichia coli ATCC 25922, Micrococcus luteus, and multidrug resistant Pseudomonas aeruginosa. Dilution antimicrobial susceptibility tests for aerobic bacteria were carried out as previously reported.

MRSA shhs-A1 = assay: as above; format: cell-based, methicillin-resistant Staphylococcus aureus; conditions: Staphylococcus aureus
Method: as §3, §4

[7] = tested on: Enterococcus faecalis ATCC29212; assay: as above; format: cell-based
Method: as §3, §4

[8] = tested on: Escherichia coli ATCC 25922; assay: as above; format: cell-based; conditions: ATCC25922
Method: as §3, §4

Micrococcus luteus = assay: as above; format: cell-based
Method: as §3, §4

[9] = tested on: Staphylococcus aureus ATCC 29213; assay: as above; format: cell-based; conditions: ATCC29213
Method: as §3, §4

[10] = tested on: multidrug resistant Pseudomonas aeruginosa; assay: as above; format: cell-based
Method: as §3, §4

[11] = MCF7, MCF-7, MTT, n = 3, mean ± SD, read-out: in vitro cytotoxicity IC50, MCF-7
[12] = HepG2, MTT, n = 3, mean ± SD, read-out: in vitro cytotoxicity IC50, HepG2
[13] = A549, MTT, n = 3, mean ± SD, read-out: in vitro cytotoxicity IC50, A549
[14] = CNE-2, CNE2, MTT, n = 3, mean ± SD, read-out: in vitro cytotoxicity IC50, CNE2

SMILES	IC50 ([1]; HL7702 normal hepatic cells)	IC50 [2, 11]	IC50 [3, 12]	IC50 [4, 13]	IC50 [5, 14]	estimated therapeutic ratio (TR) [6]	fold more cytotoxic/potent than the positive control cisplatin [6]	MIC (MRSE shhs-E1; MRSE)	MIC (MRSA shhs-A1)	MIC [7]	MIC [8]	MIC (Micrococcus luteus)	MIC [9]	MIC [10]	other results
Cc1cc(O)c2c3c(ccc2c1)C(=O)c1c(ccc(C2CC4OC5CC(=O)C(C)OC5OC4C(C)O2)c1O)C3=O (stereo not shown) [Compound 2, marangucycline B]	3.67 ± 0.07 µM	0.24 ± 0.003 µM	0.43 ± 0.05 µM	0.45 ± 0.03 µM	0.56 ± 0.02 µM	7–15	10–20 fold	–	–	–	–	–	–	–	IC50 ([6]; Homo sapiens, four cancer cell lines, read-out: IC50 values against cancer cell lines (range over the panel)): 0.24 to 0.56 µM
Cc1cc(O)c2c3c(ccc2c1)C(=O)c1c(ccc([C@H]2C[C@@H](O)[C@H](O)[C@@H](C)O2)c1O)C3=O [Compound 3, dehydroxyaquayamycin]	49.34 ± 0.17 µM	23.65 ± 0.09 µM	18.81 ± 0.12 µM	16.4 ± 0.19 µM	22.27 ± 0.07 µM	2–3	–	–	–	–	–	–	–	–	MIC (MRSE shhs-E1; MRSE shhs-E1, read-out: MIC): 16 µg/mL (≈ 36.8 µM)
CCCCCCCCCCCC1=N/C(=C\c2[nH]c(-c3ccc[nH]3)cc2OC)C=C1 [Compound 4, undecylprodigiosin]	12.47 ± 0.09 µM	1.11 ± 0.07 µM	4.67 ± 0.09 µM	0.85 ± 0.01 µM	0.28 ± 0.02 µM	3–45	1–10 fold	> 64 µg/mL	> 64 µg/mL	> 64 µg/mL	> 64 µg/mL	> 64 µg/mL	> 64 µg/mL	> 64 µg/mL	–
CCC1CCCCCCCCC2=N/C(=C\c3[nH]c(-c4ccc[nH]4)cc3OC)C1=C2 (stereo not shown) [Compound 5, metacycloprodigiosin]	–	–	–	–	–	–	–	> 64 µg/mL	> 64 µg/mL	> 64 µg/mL	> 64 µg/mL	> 64 µg/mL	> 64 µg/mL	> 64 µg/mL	IC50 [1]: > 50 µM; IC50 ([2]; MCF7, read-out: in vitro cytotoxicity IC50, MCF-7): > 50 µM; IC50 ([3]; HepG2, read-out: in vitro cytotoxicity IC50, HepG2): > 50 µM; IC50 ([4]; A549, read-out: in vitro cytotoxicity IC50, A549): > 50 µM; IC50 ([5]; CNE-2, read-out: in vitro cytotoxicity IC50, CNE2): > 50 µM
Cc1cc(O)c2c3c(ccc2c1)C(=O)c1c(ccc([C@H]2C[C@@H](O)[C@H](O[C@H]4CC[C@@H](O)[C@H](C)O4)[C@@H](C)O2)c1O)C3=O [Compound 1, marangucycline A]	> 50 µM	> 50 µM	> 50 µM	> 50 µM	> 50 µM	–	–	–	–	–	–	–	–	–	–
